Target: Neuronal acetylcholine receptor subunit alpha-7 (Rattus norvegicus, UniProt Q05941)
Assay: Binding Assay: The [3H]-methyllycaconitine binding assay is a modification of the method described by Davies et al. in Neuropharmacol. 1999, 38, 679-690.Rat brain tissue (hippocampus or whole brain) is homogenized in homogenization buffer (10% w/v, 0.32 M sucrose, 1 mM EDTA, 0.1 mM phenylmethylsulphonyl fluoride (PMSF), 0.01% (w/v) NaN3, pH 7.4, 4 C.) at 600 rpm in a glass homogenizer. The homogenate is centrifuged (1000xg, 4 C., 10 min) and the supernatant is removed. The pellet is resuspended (20% w/v) and the suspension is centrifuged (1000xg, 4 C., 10 min). The two supernatants are combined and centrifuged (15 000xg, 4 C., 30 min). The pellet obtained in this way is referred to as the P2 fraction.The P2 pellet is suspended in binding buffer (50 mM Tris-HCl, 1 mM MgCl2, 120 mM NaCl, 5 mM KCl, 2 mM CaCl2, pH 7.4), and the suspension is centrifuged (15 000xg, 4 C., 30 min), twice.The residue is resuspended in binding buffer and incubated in a volume of 250 ul.
Type: tissue-based

Sequence of Neuronal acetylcholine receptor subunit alpha-7 (Q05941 whole entry): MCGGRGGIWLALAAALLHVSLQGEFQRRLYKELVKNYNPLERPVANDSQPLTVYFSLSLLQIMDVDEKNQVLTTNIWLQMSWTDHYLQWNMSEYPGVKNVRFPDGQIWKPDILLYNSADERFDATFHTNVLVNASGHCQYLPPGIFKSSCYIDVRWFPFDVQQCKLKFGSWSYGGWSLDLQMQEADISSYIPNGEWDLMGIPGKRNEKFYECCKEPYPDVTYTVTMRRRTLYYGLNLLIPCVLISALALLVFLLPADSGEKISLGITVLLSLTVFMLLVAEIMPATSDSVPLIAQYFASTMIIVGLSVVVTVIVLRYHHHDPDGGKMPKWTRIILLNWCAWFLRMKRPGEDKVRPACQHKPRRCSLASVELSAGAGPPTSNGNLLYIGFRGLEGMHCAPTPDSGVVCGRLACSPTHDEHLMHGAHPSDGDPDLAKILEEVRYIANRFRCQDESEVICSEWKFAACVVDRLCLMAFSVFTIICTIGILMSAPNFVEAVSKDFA

| Compound | Ki |
| --- | --- |
| CNC(=O)NCc1ccccc1-c1cccc2cc(C(=O)N[C@H]3CN4CCC3CC4)sc12 | 3.3 nM |
| O=C(NC1CC1)c1cccc(-c2cccc3cc(C(=O)N[C@H]4CN5CCC4CC5)oc23)c1 | 3 nM |
| CN1CCN(C(=O)c2cccc(-c3cccc4cc(C(=O)N[C@H]5CN6CCC5CC6)oc34)c2)CC1 | 14 nM |

Source: ChEMBL document CHEMBL3638567, “2-heteroaryl carboxamides” (2015)
